Test results as given in patent US20160244728A1, “CULTURE METHOD FOR PLURIPOTENT STEM CELLS AND KIT AND MEDIUM FOR CULTURE OF PLURIPOTENT STEM CELLS USED THEREIN” (FUJIFILM Corporation, priority 2013, published 2016).

Experiments:
human iPS cells [1] = experiment: Cell adhesiveness evaluation 2 (synthetic polypeptides added to cells seeded on natural vitronectin); type: cell-based; conditions: 100 μM synthetic polypeptide
Protocol: The polypeptides shown in Table 7 were synthesized by an Fmoc solid-phase synthesis method. A surface onto which natural vitronectin was adsorbed at a concentration of 130 pmol/cm^2 was prepared, and then a cell suspension to which 100 μM of the aforementioned synthetic polypeptides were added was seeded into wells at a ratio of 30,000 cells/well. The number of adhesive cells 24 hours after seeding was calculated in the same manner as in <Cell adhesiveness evaluation 1>, and the results are shown in Table 7. In Table 7, the cell adhesion rate is expressed as a relative value calculated by regarding the cell adhesion rate obtained by using a culture solution not containing the synthetic polypeptides as being 100%. n=3.

[2] = Evaluation of adsorbability with respect to culture dish; type: physicochemical; conditions: FIG. 1
Protocol: Each of the polypeptides obtained as above was diluted with a predetermined buffer such that they could be added to wells at a predetermined final concentration of 0 pmol/cm^2 to 200 pmol/cm^2. Thereafter, each of the polypeptides was added in an amount of 64 μL to a plasma-treated 96-well plate made of polystyrene (Tissue Culture-Treated, Falcon). Each of the polypeptides was allowed to adsorb onto the plate by being incubated for 2 hours at 37° C., and then the wells were washed twice with PBS, thereby obtaining surfaces coated with each of the polypeptides of RCP-1 to RCP-16.
Among the surfaces coated with each of the polypeptides obtained as above, the surfaces coated with RCP-1 and RCP-11 to RCP-16 were applied with 64 μL of a borate buffer and 64 μL of 1 N NaOH, followed by incubation for 24 hours at 80° C. and 100% humidity. After the resultant was air-cooled, 75 μL of a borate buffer was added to each well, and 50 μL of a reaction solution obtained by mixing OPA (o-phthalaldehyde: Wako Pure Chemical Industries, Ltd./methanol solution (160 mg/ml)) with N-acetyl-L-cysteine (NAC: Wako Pure Chemical Industries, Ltd.)/borate buffer solution (2 mg/ml) at a ratio of 1:100 (mass ratio) was further added thereto. After incubation for 30 minutes at 40° C., the fluorescence intensity thereof was measured by using an Envision Multilabel Counter (PerkinElmer Inc.) (excitation 355 nm/fluorescence 486 nm). A calibration curve was separately prepared from each of the polypeptide solutions so as to calculate the amount of the polypeptide adsorbed. In FIG. 1, a black rhombus indicates RCP-1, a black square indicates RCP-11, a black triangle indicates RCP-12, a black circle indicates RCP-13, a white rhombus indicates RCP-14, a white square indicates RCP-15, and a white triangle indicates RCP-16.

human iPS cells [3] = experiment: Growth evaluation in Essential 8 medium with magnesium ascorbyl phosphate; type: cell-based; conditions: for number of growing cells depending on the concentration of magnesium ascorbyl phosphate (in words): Tables 10 to 13; for Number of cells after 3 days (%): n=3
Protocol: The growth of cells was evaluated in the same manner as in Reference example 5.
Magnesium ascorbyl phosphate was added to a medium. […] The samples were adsorbed onto a 96-well plate, and the iPS cells collected in the same manner as in <Cell adhesiveness evaluation 1> were seeded into the plate at a ratio of 1×10^4 cells/well and cultured for 3 days in a 5% CO2 incubator at 37° C. The number of cells after 3 days was measured in the same manner as in <Cell adhesiveness evaluation 1>. Furthermore, by using VTN-N (manufactured by Life Technologies) and Vitronectin-XF (manufactured by Primorigen Biosciences), the growth of the cells was evaluated in the same manner.
The results obtained from RCP-17 are shown in Table 10, the results obtained from Human Recombinant Laminin-511 are shown in Table 11, the results obtained from VTN-N (manufactured by Life Technologies) are shown in Table 12, and the results obtained from Vitronectin-XF (manufactured by Primorigen Biosciences) are shown in Table 13. In Tables 10 and 11, the number of cells is expressed as a relative value calculated by regarding the number of cells at the concentration of magnesium ascorbyl phosphate of 0.8 mmol/L as being 100. n=3.

human iPS cells [4] = experiment: Evaluation of maintenance of undifferentiated state; type: cell-based
Protocol: iPS cells collected in the same manner as in <Cell adhesiveness evaluation 1> were suspended in TeSR2. The iPS cells were seeded into 6-well plate (Tissue culture-treated, Falcon), onto which each of the samples 1, 2, 5, 6, and 7 used in <Cell adhesiveness evaluation 1> was adsorbed in the same manner as in <Cell adhesiveness evaluation 1>, and cultured in a CO2 incubator at 37° C. Except for the day after the seeding, the medium was replaced every day. In the same method as described above, the cells were subcultured every six days. FIGS. 3A to 3E show forms of the iPS cells cultured on each of the samples.
After being cultured for 1 month under the conditions described above, the cells were immobilized using 4% paraformaldehyde and treated with 1% Triton-X/PBS so as to enhance the membrane permeability. After the cells were subjected to a blocking treatment using an Image IT Signal Enhancer (Invitrogen), an anti-human NANOG antibody (AF 1997, R&D Systems, Inc.), an Alexa Fluor 555 binding rabbit anti-goat IgG antibody (Invitrogen), and DAPI (Dojindo Molecular Technologies, Inc.) were added thereto for labeling, and the cells were imaged using a fluorescence microscope. FIGS. 4A to 4E show the fluorescence microscopic images.
FIGS. 3A and 4A show the iPS cells cultured on RCP-1; FIGS. 3B and 4B show the iPS cells cultured on RCP-11; FIGS. 3C and 4C show the iPS cells cultured on natural human vitronectin; FIGS. 3D and 4D show the iPS cells cultured on rLaminin-5; and FIGS. 3E and 4E show the iPS cells cultured on rLaminin-511. The scale bar in the images indicates 100 μm. In FIGS. 3A to 3E, the images on the left side are full images of the colony, and the images on the right side are magnified images. In FIGS. 4A to 4E, the images on the left side are images of the cells stained with DAPI, and the images on the right side are images of the cells stained with an anti-NANOG antibody. The scale bar in FIGS. 3 and 4 indicates 200 μm.

Molecule: EGFNVDKKCQCDELCSYYQS [Peptide-3, polypeptide synthesized by an Fmoc solid-phase synthesis method]
- adhesion of cells to the natural vitronectin on addition of the peptide (in words) (human iPS cells [1]): not hindered

Molecule: RCP-14: recombinant polypeptide, human vitronectin positions 1-55 (GPLGDQESCKGRCTEGFNVDKKCQCDELCSYYQSCCTDYTAECKPQVTRGDVFTMPEDE; Synthetic Peptide RCP-14)
- amount adsorbed onto the plate relative to the polypeptide including SEQ ID NO: 3 [2]: about 1/4

Molecule: CCTDYTAECKPQVTRGDVFT [Peptide-5, polypeptide synthesized by an Fmoc solid-phase synthesis method]
- adhesion of cells to the natural vitronectin on addition of the peptide (in words) (human iPS cells [1]): significantly hindered

Molecule: TAECKPQVTRGDVFTMPEDE [Peptide-6, polypeptide synthesized by an Fmoc solid-phase synthesis method]
- adhesion of cells to the natural vitronectin on addition of the peptide (in words) (human iPS cells [1]): significantly hindered

Molecule: DKKCQCDELCSYYQSCCTDY [Peptide-4, polypeptide synthesized by an Fmoc solid-phase synthesis method]
- adhesion of cells to the natural vitronectin on addition of the peptide (in words) (human iPS cells [1]): significantly hindered

Molecule: Laminin-511: recombinant laminin (Human Recombinant Laminin-511: BIOLAMINA AB), control
- number of growing cells depending on the concentration of magnesium ascorbyl phosphate (in words) (human iPS cells [3]): does not depend
- Number of cells after 3 days (%) (human iPS cells [3]; magnesium ascorbyl phosphate 0.2 mmol/L, added amount 20 μg/cm^3, Table 11, relative to 0.8 mmol/L = 100): 61%
- Number of cells after 3 days (%) (human iPS cells [3]; magnesium ascorbyl phosphate 0.5 mmol/L, added amount 20 μg/cm^3, Table 11, relative to 0.8 mmol/L = 100): 79%
- Number of cells after 3 days (%) (human iPS cells [3]; magnesium ascorbyl phosphate 0.8 mmol/L, added amount 20 μg/cm^3, Table 11, reference = 100): 100%
- Number of cells after 3 days (%) (human iPS cells [3]; magnesium ascorbyl phosphate 1.6 mmol/L, added amount 20 μg/cm^3, Table 11, relative to 0.8 mmol/L = 100): 90%
- Number of cells after 3 days (%) (human iPS cells [3]; magnesium ascorbyl phosphate 3.7 mmol/L, added amount 20 μg/cm^3, Table 11, relative to 0.8 mmol/L = 100): 114%
- Number of cells after 3 days (%) (human iPS cells [3]; magnesium ascorbyl phosphate 9.1 mmol/L, added amount 20 μg/cm^3, Table 11, relative to 0.8 mmol/L = 100): 100%
- Number of cells after 3 days (%) (human iPS cells [3]; magnesium ascorbyl phosphate 18.1 mmol/L, added amount 20 μg/cm^3, Table 11, relative to 0.8 mmol/L = 100): 112%

Molecule: DQESCKGRCTEGFNVDKKCQ [Peptide-1, polypeptide synthesized by an Fmoc solid-phase synthesis method]
- adhesion of cells to the natural vitronectin on addition of the peptide (in words) (human iPS cells [1]): not hindered

Molecule: CCTDYTAECKPQVTRGEVFT [Peptide-7]
- adhesion of cells to the natural vitronectin on addition of the peptide (in words) (human iPS cells [1]): not hindered

Molecule: TAECKPQVTRGEVFTMPEDE [Peptide-8]
- adhesion of cells to the natural vitronectin on addition of the peptide (in words) (human iPS cells [1]): not hindered

Molecule: KGRCTEGFNVDKKCQCDELC [Peptide-2, polypeptide synthesized by an Fmoc solid-phase synthesis method]
- adhesion of cells to the natural vitronectin on addition of the peptide (in words) (human iPS cells [1]): not hindered

B1: Natural vitronectin: human vitronectin (extracted from human serum, BD Biosciences), control (protein, listed as Homo sapiens)
chain: DQESCKGRCTEGFNVDKKCQCDELCSYYQSCCTDYTAECKPQVTRGDVFTMPEDEYTVYDDGEEKNNATVHEQVGGPSLTSDLQAQSKGNPEQTPVLKPEEEAPAPEVGASKPEGIDSRPETLHPGRPQPPAEEELCSGKPFDAFTDLKNGSLFAFRGQYCYELDEKAVRPGYPKLIRDVWGIEGPIDAAFTRINCQGKTYLFKGSQYWRFEDGVLDPDYPRNISDGFDGIPDNVDAALALPAHSYSGRERVYFFKGKQYWEYQFQHQPSQEECEGSSLSAVFEHFAMMQRDSWEDIFELLFWGRTSAGTRQPQFISRDWHGVPGQVDAAMAGRIYISGMAPRPSLAKKQRFRHRNRKGYRSQRGHSRGRNQNSRRPSRATWLSLFSSEESNLGANNYDDYRMDWLVPATCEPIQSVFFFSGDKYYRVNLRTRRVDTVDPPYPRSIAQYWLGCPAPGHL
- form of the iPS cell colony (human iPS cells [4]; FIGS. 3A to 3E, TeSR2, subcultured every six days): form specific to undifferentiated cells
- maintenance of the undifferentiated state (NANOG staining) (human iPS cells [4]; FIGS. 4A to 4E, after culture for 1 month): strongly expressed NANOG in the entirety of the colony

B2: RCP-17: recombinant polypeptide, human vitronectin positions 1-55, 269-277, 295-341, 342-373, C274S (protein)
chain: MDQESCKGRCTEGFNVDKKCQCDELCSYYQSCCTDYTAECKPQVTRGDVFTMPEDESQEESEGSEDIFELLFWGRTSAGTRQPQFISRDWHGVPGQVDAAMAGRIYISGMAPRPSLAKKQRFRHRNRKGYRSQRGHSRGRNQN
modifications: Synthetic Peptide RCP-17
notes: recombinant polypeptide, human vitronectin positions 1-55, 269-277, 295-341, 342-373, C274S
- number of growing cells depending on the concentration of magnesium ascorbyl phosphate (in words) (human iPS cells [3]): increases
- Number of cells after 3 days (%) (human iPS cells [3]; magnesium ascorbyl phosphate 0.2 mmol/L, added amount 100 μg/cm^3, 1×10^4 cells/well, relative to 0.8 mmol/L = 100): 114%
- Number of cells after 3 days (%) (human iPS cells [3]; magnesium ascorbyl phosphate 0.5 mmol/L, added amount 100 μg/cm^3, 1×10^4 cells/well, relative to 0.8 mmol/L = 100): 98%
- Number of cells after 3 days (%) (human iPS cells [3]; magnesium ascorbyl phosphate 0.8 mmol/L, added amount 100 μg/cm^3, 1×10^4 cells/well, reference = 100): 100%
- Number of cells after 3 days (%) (human iPS cells [3]; magnesium ascorbyl phosphate 1.6 mmol/L, added amount 100 μg/cm^3, 1×10^4 cells/well, relative to 0.8 mmol/L = 100): 145%
- Number of cells after 3 days (%) (human iPS cells [3]; magnesium ascorbyl phosphate 3.7 mmol/L, added amount 100 μg/cm^3, 1×10^4 cells/well, relative to 0.8 mmol/L = 100): 219%
- Number of cells after 3 days (%) (human iPS cells [3]; magnesium ascorbyl phosphate 9.1 mmol/L, added amount 100 μg/cm^3, 1×10^4 cells/well, relative to 0.8 mmol/L = 100): 212%
- Number of cells after 3 days (%) (human iPS cells [3]; magnesium ascorbyl phosphate 18.1 mmol/L, added amount 100 μg/cm^3, 1×10^4 cells/well, relative to 0.8 mmol/L = 100): 204%
- Number of cells after 3 days (%) (human iPS cells [3]; magnesium ascorbyl phosphate 36.0 mmol/L, added amount 100 μg/cm^3, 1×10^4 cells/well, relative to 0.8 mmol/L = 100): 230%
